Here are results for two compounds from PMC12070314, “Efficient Small-Molecule Reversal Agents for Anticoagulant Fondaparinux” (ACS Pharmacology & Translational Science, 2025).

Assay [1] deals with FXa/ATIII inhibited by fondaparinux. The experiment in a line: In vitro FXa/ATIII enzymatic assay of anti-fondaparinux activity. It is filed as biochemical, human. The note with it: for Restoration of FXa protease activity (hydrolysis rate of the peptide substrate): 15 μM fond + 9 or 15 μM antidote, HPLC. The procedure:
The activity of two spermine derivatives, 3AC and 3FF, as fond antidotes was evaluated with an in vitro enzymatic assay related to blood coagulation, as previously described (Figure A). , In brief, fond promotes a conformational change in ATIII toward an efficient inhibitor of FXa. Addition of a ligand of fond hinders the inhibitory action of ATIII restoring the FXa hydrolytic activity, which has been used as an indirect measurement of antifond behavior.
Recombinant antithrombin III and coagulation factor Xa were obtained from two different kits, Berichrom Heparin test (SIEMENS) and Kinetichrome Anti-Xa Heparin kit (Iduron). Methods for both kits are similar, but not identical. Differences will be spotted by method A (SIEMENS) and method B (Iduron). Following the manufacturer’s instructions, stock solutions were prepared as follows: human antithrombin III (1 IU/mL) and factor Xa reagent (0.4 μg/mL, human plasma fraction with additives Tris, sodium chloride, and EDTA). Chromogenic substrate specific for factor Xa was dissolved at 4 mM concentration (A: Z-D-Leu-Gly-Arg-ANBA-methyl amide, and B: Z-D-Arg-Gly-Arg-pNA). Additionally, either 4-nitroaniline (A) or N-Boc-4-nitroaniline (B) was added to the substrate solution at a concentration of 1.6 mM and used as an internal standard to quantify the hydrolysis of the chromogenic substrate. All compounds were dissolved in Milli-Q water at the desired stock concentrations prior to start of the assays and kept at 4 °C. Various concentrations of the ligand, fondaparinux (up to 15 μM) or LMWH (0.1 to 10 μM), human antithrombin III solution (2 μL), and factor Xa reagent solution (35 μL) were consecutively added to an Eppendorf vial and brought to a total volume of 145 μL. Then, 20 μL of reagent substrate solution was added to start the experiment, and the mixture was vigorously shaken at 25 °C. 20 μL aliquots were taken at 5/10/15/20/30/50/80/120 minutes, diluted with 40 μL of acetic acid (20% v/v), and injected into the analytical HPLC system. The gradient ranged from 5% of ACN (0.1% formic acid) in water (0.1% formic acid) to 100% of ACN in 24 min using a 15 × 4.6 mm KROMAPHASE C18 5.0 μm column. In A: the retention time of cleaved chromophore was 9.1 min, retention time of chromogenic substrate was 13.9 min, and retention time of 4-nitroaniline was 15.4 min. In B: the retention time of chromogenic substrate was 11.0 min, retention time of cleaved chromophore was 15.2 min, and retention time of N-Boc-4-nitroaniline was 21.7 min. FXa/ATIII activity was represented as the percent of hydrolysis, which was calculated from the normalized area of the cleaved peptide at 405 nm at each corresponding time point. The experiment carried out in the absence of heparinoid was considered as the maximum of activity, while the experiment with heparinoid and no ligand was considered as negative control (maximum inhibition of FXa by heparinoid). The concentration of heparinoid was selected for the measurement to render significant inhibition within experimental time while allowing the reaction to proceed.

The nature of assay [2]: NMR titration and DOSY binding study with fondaparinux. The note with it: water (D2O buffer), neutral pH. The source says: The [3AC–fond] binding was additionally studied by NMR. Titration of fond with 3AC modifies several ^1H and ^13C NMR signals that can be readily monitored by ^1H and ^1H–^13C HSQC NMR experiments (Figures and S5–S7). A close analysis of the corresponding chemical-shift perturbations (Figures C and S8) allows determination of the sugar rings to be more affected by the presence of the ligand (see the chemical structure with arbitrary labeling of the rings in Figure A). We hypothesized that [fond–3AC] binding occurs by polar interactions (through the ammonium and OH groups of 3AC with sulfate, carboxylate, and OH residues of fond) and nonpolar contacts (by CH–π interactions between aromatic rings of 3AC and pyranose CH bonds of fond). […] The corresponding ^1H NMR spectra in 90% H2O/10% D2O at pH 8.2 and 288 K allow detection of the NH-sulfamate protons (Figures D and S9) and confirmed the stronger perturbation of ring V. The conformational behavior of fond in the absence and presence of 3AC was additionally studied by acquiring a series of 2D NOESY and 2D ROESY spectra (Figures S10–S13). […]
One- and two-dimensional (1D and 2D) NMR experiments were performed at 298 K on a 500 MHz Bruker AVANCE III HD instrument equipped with a z-gradient (65.7 G cm^–1) inverse TCI-cryoprobe. Samples were dissolved in 5 mM Tris-d11 buffer with 50 mM NaCl (in D2O, pH 7.5, uncorrected pH meter reading). […]

For assay [3], the system named is freshly extracted mouse blood. The experiment in a line: Naked-eye ex vivo blood coagulation assay. The format is cell-based. The note with it: 100 μM fond + 200 μM antidote, 5 min. The procedure:
Considering the results obtained in the in vitro assays, we aimed to test our molecules in a more relevant and challenging environment. To this aim, we performed naked-eye ex vivo coagulation assays (Figure ). Freshly extracted mouse blood samples were treated with fond (100 μM final concentration) in the absence and in the presence of different antidotes (two molar equivalents). Blood coagulation was visually inspected by the simple inversion of the vials. For a fair comparison between different series, all of the experiments were done in parallel with the corresponding control samples of untreated mouse blood (labeled “0” in Figure ). […] The effect of antidotes alone on blood coagulation was also tested (Figure B), showing that neither of the three small molecules appreciably changed the coagulation properties.
This naked-eye coagulation test is an adaptation of the whole blood clotting time assay. , Freshly collected mouse blood was directly used without further treatment. 300 μL aliquots were dispensed in Eppendorf tubes, to which fondaparinux (100 μM), and/or potential antidotes (3AC, 3FF, ciraparantag, or protamine, 200 μM) were added, and a picture was taken after 5 min. Clot formation was verified by inverting the Eppendorf vials.

Setting [4] is: [fond] = [antidote] = 15 μM, three reaction times.

For the compound `Oc1ccccc1CNCCCNCCCCNCCCNCc1ccc2c(c1)Cc1ccccc1-2` [Compound 3AC], the “Restoration of FXa protease activity (hydrolysis rate of the peptide substrate)” value in assay [1] was “restore the FXa protease activity in a dose–response manner”. The “Percent recovery of peptide substrate hydrolysis” value is reported as “higher potency” in assay [1] ([fond] = 15 μM, lower antidote concentration (9 μM), Figure S2) and “almost complete fast recovery up to the control values” in assay [1] (setting [4]). Also, the “Binding to fond by NMR” value in assay [2] is “strong binding”. Besides, in assay [3], the “Reversal of fond anticoagulant effect (clot formation by vial inversion)” value was “efficiently revert the drug effect”.
As for `Oc1ccc2ccccc2c1CNCCCNCCCCNCCCNCc1c(O)ccc2ccccc12` [Compound 3FF], the “Restoration of FXa protease activity (hydrolysis rate of the peptide substrate)” value in assay [1] is reported as “restore the FXa protease activity in a dose–response manner”. For the same compound, the “Percent recovery of peptide substrate hydrolysis” value in assay [1] (setting [4]) is “almost complete fast recovery up to the control values”. For the same compound, the “Binding to fond by NMR” value in assay [2] is given as “slightly weaker binding”. Moreover, the “Reversal of fond anticoagulant effect (clot formation by vial inversion)” value in assay [3] is given as “efficiently revert the drug effect”.
